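The compound was tested at five concentrations on cells cultured in 96-well plates, with a 48-hour exposure period. Here, GI50 denotes the concentration required for 50% inhibition of growth.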 Calls of active or inactive are those of the source. No stated cut-off is given here; in the data, active = GI50 up to about 1.1 µM and inactive = higher.
Key:
Assay in all cases: growth of human tumour cells (NCI), 48 h
NCI-H522 = tested on: NCI-H522
RXF 393 = tested on: RXF 393
SK-OV-3 = tested on: SK-OV-3
M14 = tested on: M14
HCT-15 = tested on: HCT-15
UACC-62 = tested on: UACC-62
786-0 = tested on: 786-0
ACHN = tested on: ACHN
COLO 205 = tested on: COLO 205
A549 = tested on: A549
MCF7 = tested on: MCF7
IGROV-1 = tested on: IGROV-1
OVCAR-5 = tested on: OVCAR-5
SN12C = tested on: SN12C
K562 = tested on: K562
LOX IMVI = tested on: LOX IMVI
MDA-N = tested on: MDA-N
HOP-62 = tested on: HOP-62
KM12 = tested on: KM12
HL-60 = tested on: HL-60

Measured: GI50

N/N=C1\C(OC(=O)Nc2ccccc2)=Nc2ccccc21
inactive: NCI-H522 13.7 µM | RXF 393 15.4 µM | SK-OV-3 19.8 µM | M14 13.4 µM | UACC-62 14.8 µM | 786-0 16.4 µM | ACHN 15.1 µM | COLO 205 17.3 µM | A549 17 µM | MCF7 9.93 µM | IGROV-1 14.8 µM | OVCAR-5 45.1 µM | SN12C 19.2 µM | K562 40.3 µM | LOX IMVI 14.5 µM | MDA-N 19.1 µM | HOP-62 18.6 µM | KM12 13.1 µM
26.5 µM: HCT-15

Cc1cccc(/N=N/c2c(C)nn(C(=O)CC(=O)Nc3ccccc3)c2C)c1
> 100 µM: HCT-15
inactive: NCI-H522 > 100 µM | RXF 393 > 100 µM | SK-OV-3 > 100 µM | M14 > 100 µM | UACC-62 > 100 µM | 786-0 > 100 µM | HL-60 > 100 µM | ACHN > 100 µM | COLO 205 > 100 µM | A549 > 100 µM | MCF7 > 100 µM | IGROV-1 > 100 µM | OVCAR-5 > 100 µM | SN12C > 100 µM | LOX IMVI > 100 µM | MDA-N > 100 µM | HOP-62 > 100 µM | KM12 > 100 µM

O=C(CCCCCCCCC(=O)N1C(=O)CC(=O)N(c2ccccc2)C1=S)N1C(=O)CC(=O)N(c2ccccc2)C1=S
> 100 µM: HCT-15
inactive: NCI-H522 > 100 µM | RXF 393 > 100 µM | SK-OV-3 > 100 µM | M14 > 100 µM | UACC-62 > 100 µM | 786-0 > 100 µM | ACHN > 100 µM | COLO 205 > 100 µM | A549 > 100 µM | MCF7 > 100 µM | OVCAR-5 > 100 µM | SN12C > 100 µM | LOX IMVI > 100 µM | MDA-N > 100 µM | HOP-62 > 100 µM | KM12 > 100 µM

OCCCCn1cc(Cn2ncc3c(SCc4ccccc4)ncnc32)nn1
28.3 µM: HCT-15
inactive: NCI-H522 29.2 µM | RXF 393 64.9 µM | SK-OV-3 89.1 µM | M14 29.9 µM | UACC-62 44.5 µM | 786-0 63.4 µM | ACHN 67.6 µM | COLO 205 31 µM | A549 42.7 µM | MCF7 57 µM | IGROV-1 77.6 µM | OVCAR-5 > 100 µM | SN12C 63 µM | K562 38.8 µM | LOX IMVI 72.4 µM | MDA-N 15.7 µM | HOP-62 44.1 µM | KM12 26 µM

O=S(=O)(c1cc(Cl)ccc1Cl)N1CCN(S(=O)(=O)c2cc(Cl)ccc2Cl)CC1
> 100 µM: HCT-15
active: UACC-62 0.489 µM
inactive: NCI-H522 > 100 µM | RXF 393 > 100 µM | M14 > 100 µM | 786-0 > 100 µM | ACHN > 100 µM | A549 > 100 µM | MCF7 > 100 µM | IGROV-1 > 100 µM | OVCAR-5 16.3 µM | SN12C > 100 µM | K562 > 100 µM | MDA-N > 100 µM | HOP-62 > 100 µM | KM12 > 100 µM

CO[C@]12C#CC=CC#C[C@@H](O)[C@]3(CCC1)O[C@@]23c1cccc(O)c1
inactive: RXF 393 > 100 µM | SK-OV-3 > 100 µM | M14 > 100 µM | UACC-62 52.6 µM | 786-0 > 100 µM | ACHN > 100 µM | COLO 205 > 100 µM | A549 > 100 µM | MCF7 > 100 µM | OVCAR-5 > 100 µM | SN12C > 100 µM | K562 97.3 µM | LOX IMVI > 100 µM | MDA-N > 100 µM | HOP-62 79.3 µM | KM12 > 100 µM
> 100 µM: HCT-15

COc1ccc(NC(C)=O)c(C(O)CCNC(C)=O)c1 (configuration not stated)
> 100 µM: HCT-15
inactive: NCI-H522 > 100 µM | RXF 393 > 100 µM | SK-OV-3 > 100 µM | M14 > 100 µM | UACC-62 > 100 µM | 786-0 > 100 µM | HL-60 > 100 µM | ACHN > 100 µM | COLO 205 > 100 µM | A549 > 100 µM | MCF7 > 100 µM | IGROV-1 > 100 µM | OVCAR-5 > 100 µM | SN12C > 100 µM | LOX IMVI > 100 µM | MDA-N > 100 µM | KM12 > 100 µM

C=C(C)C1CCC2(CO)C(O)CC3(C)C(CCC4C5(C)CCC(O)C(C)(C)C5CCC43C)C12 (configuration not stated)
inactive: NCI-H522 6.58 µM | RXF 393 2.32 µM | M14 18.6 µM | 786-0 8.09 µM | HL-60 25.3 µM | ACHN 3.57 µM | A549 10.6 µM | MCF7 11.6 µM | IGROV-1 11.7 µM | OVCAR-5 > 100 µM | SN12C 16.5 µM | K562 9.77 µM | LOX IMVI 9.98 µM | MDA-N 12.1 µM | HOP-62 4.16 µM | KM12 6.97 µM
11.9 µM: HCT-15

— ChEMBL document CHEMBL1201862, “PubChem BioAssay data set” (2004)
